According to paper PMC9485725, “The AIRE G228W mutation disturbs the interaction of AIRE with its partner molecule SIRT1” (Frontiers in Immunology, 2022):

Target: T1, human SIRT1 (Homo sapiens, UniProt Q96EB6)
T1 construct: purchased Sigma–Aldrich S8846
T1 sequence (Q96EB6 1-747): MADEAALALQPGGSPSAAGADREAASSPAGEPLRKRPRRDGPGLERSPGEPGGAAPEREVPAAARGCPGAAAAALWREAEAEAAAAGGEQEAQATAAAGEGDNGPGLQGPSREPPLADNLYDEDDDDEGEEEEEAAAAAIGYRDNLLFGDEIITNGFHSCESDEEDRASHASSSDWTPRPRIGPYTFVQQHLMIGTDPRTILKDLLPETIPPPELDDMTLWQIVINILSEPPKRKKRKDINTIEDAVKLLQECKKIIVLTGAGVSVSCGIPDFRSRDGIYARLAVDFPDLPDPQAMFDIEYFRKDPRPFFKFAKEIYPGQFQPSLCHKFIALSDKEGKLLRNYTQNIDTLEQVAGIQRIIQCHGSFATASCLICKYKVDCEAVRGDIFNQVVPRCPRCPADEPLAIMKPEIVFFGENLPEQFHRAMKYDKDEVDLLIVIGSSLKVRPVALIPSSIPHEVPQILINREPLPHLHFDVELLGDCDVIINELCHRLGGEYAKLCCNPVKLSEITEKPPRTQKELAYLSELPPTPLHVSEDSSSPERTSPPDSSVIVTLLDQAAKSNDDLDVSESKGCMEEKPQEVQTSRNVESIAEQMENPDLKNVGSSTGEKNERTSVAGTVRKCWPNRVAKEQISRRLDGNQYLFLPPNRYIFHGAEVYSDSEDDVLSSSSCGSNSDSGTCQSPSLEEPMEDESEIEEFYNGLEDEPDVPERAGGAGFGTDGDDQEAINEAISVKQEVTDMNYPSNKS
Test: Surface plasmon resonance (Biacore T200) of SAND peptides on immobilized SIRT1
Type: binding
Conditions: for binding kinetics (association and dissociation) with SIRT1: SPR sensorgrams, 20, 100, 200 µM, dissociation time 1200 s; for binding kinetics (association and dissociation) with SIRT1 / association with SIRT1: contact time 300 s; for binding kinetics (association and dissociation) with SIRT1 / affinity (as seen through binding and dissociation) with SIRT1: in words; for association with SIRT1 / association with SIRT1 with increasing peptide concentration / affinity (as seen through binding and dissociation) with SIRT1: SPR; for association with SIRT1: Biacore T200, CM5 chip, human SIRT1 immobilized in 10 mM sodium acetate pH 4.0 plus 20 µM NAD+, peptides (K222 acetylated) 20, 100, 200 μM, 20 μl/min, described in words; for association with SIRT1 with increasing peptide concentration: six peptide concentrations 10, 15, 20, 50, 100, 200 µM plus control 0 µM, Supplementary Figure 1; for affinity (as seen through binding and dissociation) with SIRT1: wild-type versus mutant peptide
Description: The surface plasmon resonance (SPR) experiments were performed on Biacore Model T200 equipment (GE Healthcare Biosciences, Uppsala, Sweden). For the immobilization of human SIRT1 (catalog number S8846, Sigma–Aldrich, Saint Louis, MO), a CM5 sensor chip S series (GE Healthcare Biosciences) has carboxylic groups available for covalent coupling was used. All solutions used were purchased from the equipment supplier (GE Healthcare Biosciences). The procedures described here were performed automatically with the Biacore instrument using pre-established programs for binding amines in peptides or proteins.
Briefly, the carboxylic groups on the CM5 sensor chip surface were activated with EDC + NHS, forming the NHS ester reactive intermediate, which, after washing with HBS-N, readily reacted with amines dissolved in the immobilization solution. The human SIRT1 ligand was dissolved in 10 mM sodium acetate pH 4.0 plus 20 µM NAD+ (catalog number N1636, beta-nicotinamide adenine dinucleotide hydrate, Sigma–Aldrich), which was immobilized onto the Biacore sensor chip according to the manufacturer´s instructions.
To detect interactions between SIRT1 and AIRE WT or AIRE G228W mutant SAND domain peptides, different concentrations of peptides were injected onto the CM5 chip with immobilized SIRT1 protein. […] The surface was regenerated between samples by injecting 2.0 M glycine pH 2.0 (30 s, 30 μl/min) followed by injection of 2.0 M NaCl (30 s, 30 μl/min). The stabilization period between injections after regeneration was 200 s.
The respective sequences of the twenty-amino acid peptide residues (Synbio Technologies, Monmouth Junction, NJ, USA) comprising positions 211 to 230 of the SAND domain of the human AIRE protein are as follows: from the C to N-terminus, AIRE wild-type ([…]) and AIRE G228W mutant ([…]). The underlined K residue represents the position where the acetyl radical was added. The experiment determined whether the K residue underlined was acetylated or not. The AIRE wild-type or AIRE G228W mutation data are available through GenBank NCBI (https://www.ncbi.nlm.nih.gov/) accession numbers (NM_000383.4): c.682G>T G [GGG] > W [TGG], coding sequence variant autoimmune regulator (NP_000374.1): p. Gly228TrpG (Gly) > W missense variant, DbSNP (https://www.ncbi.nlm.nih.gov/snp/rs121434257) and ClinVar (https://www.ncbi.nlm.nih.gov/clinvar/variation/3313/).
Kinetic data were analyzed with Anabel Analysis of Binding Events software ([32]), available at (www.skscience.org/anabel). Data obtained with the different concentrations of AIRE WT or mutant peptides were combined in the same graph.

| Sequence | binding kinetics (association and dissociation) with SIRT1 (listed as WT AIRE SAND peptide (Gly228)) | binding kinetics (association and dissociation) with SIRT1 (listed as wild-type SAND domain peptide) | association with SIRT1 | association with SIRT1 with increasing peptide concentration | affinity (as seen through binding and dissociation) with SIRT1 | association with SIRT1 (listed as G228W mutant peptide) | association with SIRT1 (listed as mutant AIRE SAND peptide (Trp228)) |
| --- | --- | --- | --- | --- | --- | --- | --- |
| IQQVFESGGSKKCIQVGGEF [wild-type SAND G228 peptide, twenty-amino acid peptide comprising positions 211 to 230 of the SAND domain of the human AIRE protein, wild-type] | associated and dissociated with SIRT1 throughout the analysis | bound faster and dissociated longer | more significant association capacity | progressive increase in the association | stronger affinity | – | – |
| IQQVFESGGSKKCIQVGWEF [mutant W228 SAND peptide, twenty-amino acid peptide comprising positions 211 to 230 of the SAND domain of the human AIRE protein, G228W mutant] | – | – | less able to associate with SIRT1 | not observed | weaker association | weaker association | lesser association affinity |
